Reference: ChEMBL document CHEMBL1201862, “PubChem BioAssay data set” (2004)
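Assay format: 96-well plates, 48-hour exposure. GI50 is the concentration that inhibits growth by half.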 Activity calls are given as the source filed them. No stated cut-off is given here; in the data, active = GI50 up to about 1.1 µM and inactive = higher.

How the values were obtained:
Experiment in all cases: growth of human tumour cells (NCI), 48 h
[1] = tested on: ACHN
[2] = tested on: CCRF-CEM
[3] = tested on: HCT-15
[4] = tested on: HL-60
[5] = tested on: Hs-578T
[6] = tested on: IGROV-1
[7] = tested on: K562
[8] = tested on: LOX IMVI
[9] = tested on: MCF7
[10] = tested on: NCI-H522
[11] = tested on: NCI/ADR-RES
[12] = tested on: OVCAR-3
[13] = tested on: OVCAR-8
[14] = tested on: SF-268
[15] = tested on: SF-539
[16] = tested on: SK-MEL-28
[17] = tested on: SK-OV-3
[18] = tested on: TK-10
[19] = tested on: UACC-62

| Structure (SMILES) | GI50 [1] | GI50 [2] | GI50 [3] | GI50 [4] | GI50 [5] | GI50 [6] | GI50 [7] | GI50 [8] | GI50 [9] | GI50 [10] | GI50 [11] | GI50 [12] | GI50 [13] | GI50 [14] | GI50 [15] | GI50 [16] | GI50 [17] | GI50 [18] | GI50 [19] |
| --- | --- | --- | --- | --- | --- | --- | --- | --- | --- | --- | --- | --- | --- | --- | --- | --- | --- | --- | --- |
| O=C(O)CCCSc1ccccc1 | > 100 µM (inactive) | > 100 µM (inactive) | > 100 µM | > 100 µM (inactive) | > 100 µM (inactive) | > 100 µM (inactive) | > 100 µM (inactive) | > 100 µM (inactive) | > 100 µM (inactive) | > 100 µM (inactive) | > 100 µM (inactive) | > 100 µM (inactive) | > 100 µM (inactive) | > 100 µM (inactive) | > 100 µM (inactive) | > 100 µM (inactive) | > 100 µM (inactive) | > 100 µM (inactive) | > 100 µM (inactive) |
| C/C=C(\C)c1cc(=O)c2c(C)cc3c(c2o1)C(=O)c1c(O)c(C2CC(C)(N(C)C)C(OC(C)=O)C(C)O2)cc(C2CC(N(C)C)C(O)C(C)O2)c1C3=O (stereo not given) | 0.155 µM (active) | 3.12 µM (inactive) | 1.27 µM | 0.438 µM (active) | 2 µM (inactive) | 0.8 µM (active) | 0.652 µM (active) | 0.731 µM (active) | 0.157 µM (active) | 0.172 µM (active) | 1.41 µM (inactive) | 2.13 µM (inactive) | 0.542 µM (active) | 0.655 µM (active) | 0.574 µM (active) | 1.91 µM (inactive) | 1.95 µM (inactive) | 1.06 µM (active) | 1.12 µM (inactive) |
| CC(=O)Nc1ccc(CNc2cc(=O)[nH]c(=O)[nH]2)cc1 | > 100 µM (inactive) | > 100 µM (inactive) | > 100 µM | > 100 µM (inactive) | > 100 µM (inactive) | > 100 µM (inactive) | > 100 µM (inactive) | > 100 µM (inactive) | > 100 µM (inactive) | > 100 µM (inactive) | > 100 µM (inactive) | > 100 µM (inactive) | > 100 µM (inactive) | > 100 µM (inactive) | > 100 µM (inactive) | > 100 µM (inactive) | > 100 µM (inactive) | > 100 µM (inactive) | > 100 µM (inactive) |
| N=C(N)n1nc2c(c1O)CCCC2 | > 100 µM (inactive) | > 100 µM (inactive) | > 100 µM | > 100 µM (inactive) | > 100 µM (inactive) | 65.2 µM (inactive) | > 100 µM (inactive) | > 100 µM (inactive) | > 100 µM (inactive) | > 100 µM (inactive) | > 100 µM (inactive) | > 100 µM (inactive) | > 100 µM (inactive) | > 100 µM (inactive) | > 100 µM (inactive) | > 100 µM (inactive) | > 100 µM (inactive) | > 100 µM (inactive) | > 100 µM (inactive) |
| CC1(C)CCCC2CC2CCC(C)(C)C1=O (stereo not given) | > 100 µM (inactive) | 15.7 µM (inactive) | 71.9 µM | 18.1 µM (inactive) | > 100 µM (inactive) | > 100 µM (inactive) | 17.8 µM (inactive) | 27.5 µM (inactive) | 18.3 µM (inactive) | 37.5 µM (inactive) | 28.8 µM (inactive) | 25.5 µM (inactive) | 82.8 µM (inactive) | > 100 µM (inactive) | > 100 µM (inactive) | > 100 µM (inactive) | > 100 µM (inactive) | > 100 µM (inactive) | > 100 µM (inactive) |
| CCCCNC(=O)c1cc2c(cc1Cl)Sc1nccn1S2(=O)=O | 82 µM (inactive) | 77.6 µM (inactive) | 92.9 µM | 41.3 µM (inactive) | 57.3 µM (inactive) | > 100 µM (inactive) | 78.5 µM (inactive) | 30.3 µM (inactive) | 66.4 µM (inactive) | 51.8 µM (inactive) | 79.6 µM (inactive) | 34 µM (inactive) | > 100 µM (inactive) | > 100 µM (inactive) | > 100 µM (inactive) | > 100 µM (inactive) | > 100 µM (inactive) | > 100 µM (inactive) | 86.5 µM (inactive) |
| CC1(C)N=C(N)N=C(N)N1c1cccc(C(=O)Nc2ccc(S(=O)(=O)F)cc2)c1 | > 100 µM (inactive) | > 100 µM (inactive) | > 100 µM | > 100 µM (inactive) | > 100 µM (inactive) | > 100 µM (inactive) | > 100 µM (inactive) | > 100 µM (inactive) | > 100 µM (inactive) | > 100 µM (inactive) | > 100 µM (inactive) | > 100 µM (inactive) | > 100 µM (inactive) | > 100 µM (inactive) | > 100 µM (inactive) | > 100 µM (inactive) | > 100 µM (inactive) | > 100 µM (inactive) | > 100 µM (inactive) |
| COC(=O)C1CCC(=O)N1C(c1ccc2c(c1)OCO2)c1ccc2c(c1)OCO2 (stereo not given) | > 100 µM (inactive) | > 100 µM (inactive) | > 100 µM | > 100 µM (inactive) | > 100 µM (inactive) | > 100 µM (inactive) | > 100 µM (inactive) | > 100 µM (inactive) | > 100 µM (inactive) | > 100 µM (inactive) | > 100 µM (inactive) | > 100 µM (inactive) | > 100 µM (inactive) | > 100 µM (inactive) | > 100 µM (inactive) | > 100 µM (inactive) | > 100 µM (inactive) | > 100 µM (inactive) | > 100 µM (inactive) |
| CSc1c(C#N)c(O)nc(N)c1C(=O)Nc1ccc(Cl)cc1 | 3.18 µM (inactive) | 30.3 µM (inactive) | 11.5 µM | 13.2 µM (inactive) | 31 µM (inactive) | 23.2 µM (inactive) | 4.54 µM (inactive) | 1.74 µM (inactive) | 8.63 µM (inactive) | 14.1 µM (inactive) | 17.4 µM (inactive) | 14.9 µM (inactive) | 19.1 µM (inactive) | 19.5 µM (inactive) | 16.4 µM (inactive) | 14.7 µM (inactive) | 23.3 µM (inactive) | 29.3 µM (inactive) | 0.853 µM (active) |
| NC(=O)C1=C(O)C[C@@H]2CC3Cc4cccc(O)c4C(=O)C3=C(O)[C@]2(O)C1=O (stereo not given in full) | 1.07 µM (active) | 0.873 µM (active) | 0.479 µM | 2.83 µM (inactive) | 2.81 µM (inactive) | 2 µM (inactive) | 1.81 µM (inactive) | 1.77 µM (inactive) | 1.79 µM (inactive) | 1.89 µM (inactive) | 3.24 µM (inactive) | 2.77 µM (inactive) | 2.92 µM (inactive) | 2.02 µM (inactive) | 1.64 µM (inactive) | 4 µM (inactive) | 3.69 µM (inactive) | 4.86 µM (inactive) | 2.15 µM (inactive) |
| CC1(C)CCC2=C(O1)/C(=N\Nc1ccc(S(N)(=O)=O)cc1)c1ccccc1C2=O | 19.8 µM (inactive) | 11.3 µM (inactive) | 19.2 µM | 15.1 µM (inactive) | 3.13 µM (inactive) | 14.2 µM (inactive) | 28.4 µM (inactive) | 4.41 µM (inactive) | 13.5 µM (inactive) | 12.1 µM (inactive) | 20.2 µM (inactive) | 16.7 µM (inactive) | 10.6 µM (inactive) | 11 µM (inactive) | 10.4 µM (inactive) | 18.7 µM (inactive) | 4.15 µM (inactive) | 14.5 µM (inactive) | 18.2 µM (inactive) |
| C=CCN1CCC(OC(=O)C(O)(/C=C\CC)C2CCCC2)CC1 (stereo not given) | > 100 µM (inactive) | > 100 µM (inactive) | > 100 µM | > 100 µM (inactive) | > 100 µM (inactive) | > 100 µM (inactive) | > 100 µM (inactive) | > 100 µM (inactive) | > 100 µM (inactive) | > 100 µM (inactive) | > 100 µM (inactive) | > 100 µM (inactive) | > 100 µM (inactive) | > 100 µM (inactive) | > 100 µM (inactive) | > 100 µM (inactive) | > 100 µM (inactive) | > 100 µM (inactive) | > 100 µM (inactive) |
| CO/C(N)=C(C#N)/N=C/c1ccsc1 | > 100 µM (inactive) | 24 µM (inactive) | 34.3 µM | 13.1 µM (inactive) | 52.2 µM (inactive) | 52.6 µM (inactive) | 30.4 µM (inactive) | 18.6 µM (inactive) | 32.5 µM (inactive) | 23.9 µM (inactive) | > 100 µM (inactive) | 30.6 µM (inactive) | 59 µM (inactive) | 44.7 µM (inactive) | 26.2 µM (inactive) | 85.5 µM (inactive) | > 100 µM (inactive) | > 100 µM (inactive) | 33.4 µM (inactive) |
| Clc1cc2ncn(C3CCCO3)c2cc1Cl (stereo not given) | 98.9 µM (inactive) | > 100 µM (inactive) | > 100 µM | 78.9 µM (inactive) | 48.8 µM (inactive) | 17.3 µM (inactive) | 96.2 µM (inactive) | 54.2 µM (inactive) | > 100 µM (inactive) | 24.5 µM (inactive) | 99.8 µM (inactive) | 49.8 µM (inactive) | 77.8 µM (inactive) | 99.3 µM (inactive) | > 100 µM (inactive) | > 100 µM (inactive) | > 100 µM (inactive) | 96.2 µM (inactive) | 40.1 µM (inactive) |
| O=C(CN1CCCC1)Nc1ccc2sc3ccccc3c(=O)c2n1 | 12.5 µM (inactive) | 10.5 µM (inactive) | 23.2 µM | > 10 µM (inactive) | 21.2 µM (inactive) | 23.2 µM (inactive) | 6.82 µM (inactive) | 11 µM (inactive) | 27.2 µM (inactive) | 11.2 µM (inactive) | 15.5 µM (inactive) | 42.9 µM (inactive) | 16.8 µM (inactive) | 24.7 µM (inactive) | 17.1 µM (inactive) | 19.3 µM (inactive) | 20.7 µM (inactive) | 33 µM (inactive) | 19.9 µM (inactive) |
